Measurements as given in US6048712A, “Process for producing α-monoglucosyl hesperidin-rich substance” (Kabushiki Kaisha Hayashibara, priority 1997, dated 2000).

Assays:
[1] = cited from earlier work
[2] = Dissolution and crystallization behaviour in lower alcohols; format: physicochemical; settings: heated lower alcohols, then cooled below ambient temperature, for example 15-25° C.
[3] = cited from earlier work; remark: listed apart in the source

## COc1ccc([C@@H]2CC(=O)c3c(O)cc(O)cc3O2)cc1O [hesperetin, 3',5,7-trihydroxy-4'-metoxyflavanone]
[1]
  water solubility: substantially water-insoluble

## COc1ccc(C2CC(=O)c3c(O)cc(O[C@@H]4O[C@H](CO)[C@@H](O)[C@H](O)[C@H]4O)cc3O2)cc1O (stereo partly drawn) [β-monoglucosyl hesperetin, 7-O-β-monoglucosyl hesperetin]
[2]
  solubility and crystallization in lower alcohols: easily dissolves in lower alcohols and does not substantially crystallize even when the alcohols are cooled down to temperatures below ambient temperature

## COc1ccc([C@@H]2CC(=O)c3c(O)cc(O[C@@H]4O[C@H](CO[C@@H]5O[C@@H](C)[C@H](O)[C@@H](O)[C@H]5O)[C@@H](O)[C@H](O)[C@H]4O)cc3O2)cc1O [Hesperidin]
[3]; ambient temperature, about one gram in 50 1 water
  solubility in water: about 0.002 w/v %
[3]; aqueous alkaline solutions, water and acids
  solubility in words: dissolves in aqueous alkaline solutions but not substantially in water and acids

## COc1ccc(C2CC(=O)c3c(O)cc(O[C@@H]4O[C@H](CO[C@@H]5O[C@@H](C)[C@H](O)[C@@H](O)[C@H]5O)[C@@H](O[C@H]5O[C@H](CO)[C@@H](O)[C@H](O)[C@H]5O)[C@H](O)[C@H]4O)cc3O2)cc1O (stereo partly drawn) [α-monoglucosyl hesperidin]
[2]
  solubility and crystallization in lower alcohols: easily dissolves in heated lower alcohols but easily crystallizes therein when the alcohols are cooled down to temperatures below ambient temperature
